Measurements published in ChEMBL document CHEMBL5365498, “Regulation of Eukaryotic Translation Initiation Factor 4E as a Potential Anticancer Strategy” (J Med Chem, 2023).

Tests used:
MCF7 = test: Anticancer activity against human MCF7 cells assessed as cell growth inhibition measured after 72 hrs by CCK-8 assay; format: functional, cell-based; conditions: MCF7, 72 h
[1] = target: Serine/threonine-protein kinase mTOR (Homo sapiens, UniProt P42345); test: Inhibition of human mTOR (1360 to 2549 residues) measured after 2 hrs in presence of ATP by LANCE Ultra kinase assay
A549 = test: Anticancer activity against human A549 cells assessed as cell growth inhibition measured after 72 hrs by CCK-8 assay; format: functional, cell-based; conditions: A549, 72 h
Lung cancer cell line = test: Anticancer activity against Lung cancer cell line (unknown origin) assessed as cell growth inhibition; format: functional, cell-based
[2] = Anticancer activity against Breast carcinoma cell (unknown origin) assessed as cell growth inhibition; format: functional, cell-based
[3] = Anticancer activity against Cervical carcinoma cell line (unknown origin) assessed as cell growth inhibition; format: functional, cell-based
Melanoma tumor cell line = test: Anticancer activity against Melanoma tumor cell line (unknown origin) assessed as cell growth inhibition; format: functional, cell-based

Structure (SMILES)	IC50 (MCF7) [nM]	IC50 [1] [nM]	IC50 (A549) [nM]	IC50 (Lung cancer cell line) [nM]	IC50 [2] [nM]	IC50 [3] [nM]	IC50 (Melanoma tumor cell line) [nM]
CNC(=O)Nc1ccc(-c2nc(N3CCOCC3)nc3c2C=NC3C2CCOCC2)cc1 (configuration not stated)	600	23.2	230	–	–	–	–
Oc1cccc(-c2nc(N3CCOCC3)c3oc4ncccc4c3n2)c1 [PI-103]	–	–	–	20	20	20	20
